Reference: patent publication US20230265151A1, “GIP/GLP1 CO-AGONIST COMPOUNDS” (priority 2020, published 2023)
Where two headings read alike, the source gives them in different places. *1 amine or outer side, *2 acyl side, *3 side chain or, on linkers, in order; H or OH if unused. Where a SMILES comes first, the peptide text is derived from it. Side-chain parts run from the residue outwards. [ ]: non-standard residue; d: D form. The star is where a group is joined. αMePhe(2-F) = C[C@](N)(Cc1ccccc1F)C(=O)O; γGlu = O=C(O)[C@H](CCC(=O)[*:2])N[*:1]; C14 diacid = O=C(O)CCCCCCCCCCCCC(=O)*; αMeY = C[C@](N)(Cc1ccc(O)cc1)C(=O)O; 4Pal = N[C@@H](Cc1ccncc1)C(=O)O; αMeL = CC(C)C[C@](C)(N)C(=O)O; Orn = NCCC[C@H](N)C(=O)O; AEEA = NCCOCCOCC(=O)O; Aib = CC(C)(N)C(=O)O

Key:
Type in all cases: cell-based
hGIPR = target: T1, hGIPR (Homo sapiens, UniProt P48546); assay: Functional cAMP formation (HTRF) in HEK-293 clonal cells expressing hGIPR, 0.1% bovine casein, without or with 1.0% human serum albumin; details: for EC50: geometric mean
T1 construct: expressed in transfected cells
T1 sequence (P48546 22-466): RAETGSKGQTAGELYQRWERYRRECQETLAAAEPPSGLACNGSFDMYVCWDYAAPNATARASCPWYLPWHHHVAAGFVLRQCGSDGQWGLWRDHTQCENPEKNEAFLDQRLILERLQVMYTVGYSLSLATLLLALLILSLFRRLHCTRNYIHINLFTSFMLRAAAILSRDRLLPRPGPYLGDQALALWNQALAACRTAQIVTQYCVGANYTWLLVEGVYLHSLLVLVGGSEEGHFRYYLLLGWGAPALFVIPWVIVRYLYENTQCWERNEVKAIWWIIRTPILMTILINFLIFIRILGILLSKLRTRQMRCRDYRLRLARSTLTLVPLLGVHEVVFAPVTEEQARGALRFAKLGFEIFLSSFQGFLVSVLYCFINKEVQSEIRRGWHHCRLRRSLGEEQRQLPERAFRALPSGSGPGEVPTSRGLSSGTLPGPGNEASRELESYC
Procedure, shortened: (§1)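 Readings of the HTRF 665/620 nm ratio, which falls as cAMP rises, were converted to nM cAMP using a standard curve after 30 min peptide exposure at 37° C.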

hGCGR = target: T2, hGCGR (Homo sapiens, UniProt P47871); assay: Functional cAMP formation (HTRF) in HEK-293 clonal cells expressing hGCGR, 0.1% bovine casein, without or with 1.0% human serum albumin; details: geometric mean
T2 construct: expressed in transfected cells
T2 sequence (P47871 26-477): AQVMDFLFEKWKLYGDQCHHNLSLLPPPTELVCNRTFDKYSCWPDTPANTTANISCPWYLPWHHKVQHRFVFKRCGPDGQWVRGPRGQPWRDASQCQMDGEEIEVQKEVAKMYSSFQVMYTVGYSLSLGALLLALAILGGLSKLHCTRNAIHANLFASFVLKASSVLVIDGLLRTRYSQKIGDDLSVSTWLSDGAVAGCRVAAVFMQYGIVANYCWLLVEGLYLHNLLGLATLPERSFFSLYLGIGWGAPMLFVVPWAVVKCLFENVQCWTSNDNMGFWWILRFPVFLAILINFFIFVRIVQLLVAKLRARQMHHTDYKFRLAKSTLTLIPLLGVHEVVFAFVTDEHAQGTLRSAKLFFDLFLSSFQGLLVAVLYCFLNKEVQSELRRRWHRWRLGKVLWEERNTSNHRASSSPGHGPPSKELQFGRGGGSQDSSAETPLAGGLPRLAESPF
Procedure, shortened: as §1

hGLP-1R = hGLP-1R (Homo sapiens, UniProt P43220); assay: Functional cAMP formation (HTRF) in HEK-293 clonal cells expressing hGLP-1R, 0.1% bovine casein, without or with 1.0% human serum albumin; parameters: expressed in transfected cells; details: for EC50: geometric mean
Chain of hGLP-1R (P43220 24-463): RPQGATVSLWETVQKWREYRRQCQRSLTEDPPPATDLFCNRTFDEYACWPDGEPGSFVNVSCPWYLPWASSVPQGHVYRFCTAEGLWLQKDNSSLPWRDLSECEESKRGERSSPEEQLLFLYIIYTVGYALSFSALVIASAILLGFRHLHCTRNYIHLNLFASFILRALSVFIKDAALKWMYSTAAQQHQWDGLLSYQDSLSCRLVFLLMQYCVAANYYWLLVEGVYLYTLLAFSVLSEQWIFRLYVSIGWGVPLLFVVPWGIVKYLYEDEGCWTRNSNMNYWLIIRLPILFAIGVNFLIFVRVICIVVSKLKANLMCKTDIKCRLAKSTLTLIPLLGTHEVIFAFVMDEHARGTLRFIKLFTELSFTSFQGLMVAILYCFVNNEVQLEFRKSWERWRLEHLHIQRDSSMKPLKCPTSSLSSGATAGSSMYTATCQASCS
Procedure, shortened: as §1

[1] = HEK293, read-out: hGIPR Emax, % ± SEM, percent of maximal response to GIP(1-42)NH2, 37° C., 0.1% bovine casein, arithmetic mean
[2] = hGCGR EC50, nM (SEM, n), cAMP, incubated at 37° C., 0.1% bovine casein (no human serum albumin)
[3] = hGLP-1R EC50, nM (SEM, n), cAMP, incubated at 37° C., 0.1% bovine casein (no human serum albumin)
[4] = 0.1% bovine casein and 1.0% human serum albumin, 37° C., read-out: hGIPR EC50, nM (SEM, n)
[5] = HEK293, 0.1% bovine casein and 1.0% human serum albumin, 37° C., percent of maximal response to GIP(1-42)NH2, read-out: hGIPR Emax, % ± SEM
[6] = HEK293, percent of maximal response to GIP(1-42)NH2, 37° C., 0.1% bovine casein, arithmetic mean, read-out: hGIPR Emax, % ± SEM
[7] = cAMP, incubated at 37° C., 0.1% bovine casein (no human serum albumin), read-out: hGIPR EC50, nM (SEM, n)
[8] = 0.1% bovine casein and 1.0% human serum albumin, 37° C., read-out: hGCGR EC50, nM (SEM, n)
[9] = cAMP, incubated at 37° C., 0.1% bovine casein (no human serum albumin), read-out: hGCGR EC50, nM (SEM, n)
[10] = 0.1% bovine casein and 1.0% human serum albumin, 37° C., read-out: hGLP-1R EC50, nM (SEM, n)
[11] = HEK293, 0.1% bovine casein and 1.0% human serum albumin, 37° C., percent of maximal response to GLP-1(7-36)NH2, read-out: hGLP-1R Emax, % ± SEM
[12] = HEK293, percent of maximal response to GLP-1(7-36)NH2, 37° C., 0.1% bovine casein, arithmetic mean, read-out: hGLP-1R Emax, % ± SEM
[13] = cAMP, incubated at 37° C., 0.1% bovine casein (no human serum albumin), read-out: hGLP-1R EC50, nM (SEM, n)

EC50 (hGIPR; [4]) [nM] | Emax (hGIPR; [5]) [%] | Emax (hGIPR; [6]) [%] | EC50 (hGIPR; [7]) [nM] | EC50 (hGCGR; [8]) [nM] | EC50 (hGCGR; [9]) [nM] | EC50 (hGLP-1R; [10]) [nM] | Emax (hGLP-1R; [11]) [%] | Emax (hGLP-1R; [12]) [%] | EC50 (hGLP-1R; [13]) [nM] | SMILES | Emax (hGIPR; [1]) [%] | EC50 (hGIPR; hGIPR EC50, nM (SEM, n), cAMP, incubated at 37° C., 0.1% bovine casein (no human serum albumin)) [nM] | EC50 (hGCGR; [2]) [nM] | EC50 (hGLP-1R; [3]) [nM] | Emax (hGLP-1R; HEK293, read-out: hGLP-1R Emax, % ± SEM, percent of maximal response to GLP-1(7-36)NH2, 37° C., 0.1% bovine casein, arithmetic mean) [%]
– | – | – | – | – | – | – | – | – | – | CC[C@H](C)[C@H](NC(=O)[C@H](CC(C)C)NC(=O)[C@](C)(Cc1ccc(O)cc1)NC(=O)[C@H](CCCCNC(=O)COCCOCCNC(=O)COCCOCCNC(=O)CC[C@H](NC(=O)CCCCCCCCCCCCC(=O)O)C(=O)O)NC(=O)[C@@H](NC(=O)[C@H](Cc1ccccc1)NC(=O)[C@H](CCC(=O)O)NC(=O)C(C)(C)NC(=O)[C@H](CCC(N)=O)NC(=O)[C@H](C)NC(=O)[C@H](CCCCNC(=O)COCCOCCNC(=O)COCCOCCNC(=O)CC[C@H](NC(=O)CCCCCCCCCCCCC(=O)O)C(=O)O)NC(=O)[C@H](CCCN)NC(=O)[C@H](CC(=O)O)NC(=O)[C@H](CC(C)C)NC(=O)[C@](C)(CC(C)C)NC(=O)[C@@H](NC(=O)[C@H](CO)NC(=O)[C@@H](NC(=O)[C@H](CC(=O)O)NC(=O)[C@H](CO)NC(=O)[C@@H](NC(=O)[C@](C)(Cc1ccccc1)NC(=O)[C@@H](NC(=O)CNC(=O)[C@H](CCC(=O)O)NC(=O)C(C)(C)NC(=O)[C@@H](N)Cc1ccc(O)cc1)[C@@H](C)O)[C@@H](C)O)C(C)C)[C@@H](C)CC)[C@@H](C)CC)C(=O)N[C@@H](CCC(=O)O)C(=O)NCC(=O)NCC(=O)N1CCC[C@H]1C(=O)N[C@@H](CO)C(=O)N[C@@H](CO)C(=O)NCC(=O)N[C@@H](C)C(=O)N1CCC[C@H]1C(=O)N1CCC[C@H]1C(=O)N1CCC[C@H]1C(=O)N[C@@H](CO)C(N)=O [Example 181] | 94.6 | 0.154 | > 9950 | 0.182 | –
– | – | – | – | – | – | – | – | – | – | CC[C@H](C)[C@H](NC(=O)[C@H](CC(C)C)NC(=O)[C@](C)(Cc1ccc(O)cc1)NC(=O)[C@H](CCCCNC(=O)COCCOCCNC(=O)COCCOCCNC(=O)CC[C@H](NC(=O)CCCCCCCCCCCCC(=O)O)C(=O)O)NC(=O)[C@@H](NC(=O)[C@H](Cc1ccccc1)NC(=O)[C@H](CCC(=O)O)NC(=O)C(C)(C)NC(=O)[C@H](CCC(N)=O)NC(=O)[C@H](C)NC(=O)[C@H](CCCCNC(=O)COCCOCCNC(=O)COCCOCCNC(=O)CC[C@H](NC(=O)CCCCCCCCCCCCC(=O)O)C(=O)O)NC(=O)[C@H](CCCN)NC(=O)[C@H](CC(=O)O)NC(=O)[C@H](CC(C)C)NC(=O)[C@](C)(CC(C)C)NC(=O)[C@@H](NC(=O)C(C)(C)NC(=O)[C@@H](NC(=O)[C@H](CC(=O)O)NC(=O)[C@H](CO)NC(=O)[C@@H](NC(=O)[C@](C)(Cc1ccccc1)NC(=O)[C@@H](NC(=O)CNC(=O)[C@H](CCC(=O)O)NC(=O)C(C)(C)NC(=O)[C@@H](N)Cc1ccc(O)cc1)[C@@H](C)O)[C@@H](C)O)C(C)C)[C@@H](C)CC)[C@@H](C)CC)C(=O)N[C@@H](CCC(=O)O)C(=O)NCC(=O)NCC(=O)N1CCC[C@H]1C(=O)N[C@@H](CO)C(=O)N[C@@H](CO)C(=O)NCC(=O)N[C@@H](C)C(=O)N1CCC[C@H]1C(=O)N1CCC[C@H]1C(=O)N1CCC[C@H]1C(=O)N[C@@H](CO)C(N)=O [Example 182] | 89 | – | > 9950 | 0.185 | 96.9
1.22 | 75.5 | 93.5 ± 1.46 | 0.0326 | > 9950 | > 9950 | 66.6 | 97.3 | 93.9 ± 4.99 | 1.37 | CC[C@H](C)[C@H](NC(=O)[C@H](CC(C)C)NC(=O)[C@](C)(Cc1ccc(O)cc1)NC(=O)[C@@H](CCC(=O)O)NC(=O)[C@@H](NC(=O)[C@H](Cc1ccccc1)NC(=O)[C@H](CCC(=O)O)NC(=O)C(C)(C)NC(=O)[C@H](CCC(N)=O)NC(=O)[C@H](C)NC(=O)[C@H](CCCCNC(=O)COCCOCCNC(=O)COCCOCCNC(=O)CC[C@H](NC(=O)CCCCCCCCCCCCC(=O)O)C(=O)O)NC(=O)[C@H](CCCN)NC(=O)[C@H](CC(=O)O)NC(=O)[C@H](CC(C)C)NC(=O)[C@](C)(CC(C)C)NC(=O)[C@@H](NC(=O)[C@H](CO)NC(=O)[C@H](Cc1ccncc1)NC(=O)[C@H](CC(=O)O)NC(=O)[C@H](CO)NC(=O)[C@@H](NC(=O)[C@](C)(Cc1ccccc1F)NC(=O)[C@@H](NC(=O)CNC(=O)[C@H](CCC(=O)O)NC(=O)C(C)(C)NC(=O)[C@@H](N)Cc1ccc(O)cc1)[C@@H](C)O)[C@@H](C)O)[C@@H](C)CC)[C@@H](C)CC)C(=O)N[C@@H](CCC(=O)O)C(=O)NCC(=O)NCC(=O)N[C@@H](CCCCNC(=O)COCCOCCNC(=O)COCCOCCNC(=O)CC[C@H](NC(=O)CCCCCCCCCCCCC(=O)O)C(=O)O)C(=O)N[C@@H](CO)C(=O)N[C@@H](CO)C(=O)NCC(N)=O [Example 183] (H-Y[Aib]EGT[αMePhe(2-F)]TSD[4Pal]SI[αMeL]LD[Orn]K([AEEA-AEEA-γGlu-C14 diacid])AQ[Aib]EFI[dE][αMeY]LIEGGK([AEEA-AEEA-γGlu-C14 diacid])SSG-NH2) | – | – | – | – | –
2.46 | 81.2 | 95.2 ± 1.13 | 0.0354 | > 9950 | > 9950 | 119 | 87.8 | 96.8 ± 12 | 1.82 | CC[C@H](C)[C@H](NC(=O)[C@H](CC(C)C)NC(=O)[C@](C)(Cc1ccc(O)cc1)NC(=O)[C@@H](CCC(=O)O)NC(=O)[C@@H](NC(=O)[C@H](Cc1ccccc1)NC(=O)[C@H](CCC(=O)O)NC(=O)C(C)(C)NC(=O)[C@H](CCC(N)=O)NC(=O)[C@H](C)NC(=O)[C@H](CCCCNC(=O)COCCOCCNC(=O)COCCOCCNC(=O)CC[C@H](NC(=O)CCCCCCCCCCCCC(=O)O)C(=O)O)NC(=O)[C@H](CCCN)NC(=O)[C@H](CC(=O)O)NC(=O)[C@H](CC(C)C)NC(=O)[C@](C)(CC(C)C)NC(=O)[C@@H](NC(=O)[C@H](CO)NC(=O)[C@H](Cc1ccncc1)NC(=O)[C@H](CC(=O)O)NC(=O)[C@H](CO)NC(=O)[C@@H](NC(=O)[C@](C)(Cc1ccccc1F)NC(=O)[C@@H](NC(=O)CNC(=O)[C@H](CCC(=O)O)NC(=O)C(C)(C)NC(=O)[C@@H](N)Cc1ccc(O)cc1)[C@@H](C)O)[C@@H](C)O)[C@@H](C)CC)[C@@H](C)CC)C(=O)N[C@@H](CCC(=O)O)C(=O)NCC(=O)NCC(=O)N[C@@H](CCCCNC(=O)COCCOCCNC(=O)COCCOCCNC(=O)CC[C@H](NC(=O)CCCCCCCCCCCCC(=O)O)C(=O)O)C(N)=O [Example 184] (H-Y[Aib]EGT[αMePhe(2-F)]TSD[4Pal]SI[αMeL]LD[Orn]K([AEEA-AEEA-γGlu-C14 diacid])AQ[Aib]EFI[dE][αMeY]LIEGGK([AEEA-AEEA-γGlu-C14 diacid])-NH2) | – | – | – | – | –
